Laboratory results published in patent publication US20240226217A9, “METHOD FOR EXTRACTING AND PURIFYING TOTAL FLAVONOIDS FROM CARTHAMUS TINCTORIUS L. LEAF (TFFCL), AND USE THEREOF” (Shaanxi University of Chinese Medicine, priority 2022, published 2024).

Test system: mice with CCl4-induced chronic liver injury
Assay: CCl4-induced chronic liver injury in mice
Type: in vivo
Conditions: 6 weeks
Experimental: SPF-grade male C57BL/6 mice were randomly divided into 5 groups, 12 mice in each group. The groups were a control group, a model group, a silibinin group (positive control group), a TFFCL low-dose group, and a TFFCL high-dose group. In addition to the control group, mice in the model group, positive control group, TFFCL low-dose group, and TFFCL high-dose group were intraperitoneally injected with 20% CCl4 (CCl4: olive oil=1:4, 2 mL/kg); mice in the control group were intraperitoneally injected with an equal amount of olive oil solution. Each group was injected twice a week for 6 weeks. The silibinin and TFFCL were separately suspended in 0.5% CMC-Na solution. The silibinin group, TFFCL-L group (low-dose), and TFFCL-H group (high-dose) were administered silibinin 100 mg/kg, TFFCL 20 mg/kg, and TFFCL 40 mg/kg by gavage, respectively; while the control group and the model group were intragastrically administered the same amount of 0.5% CMC-Na solution. Each group was given continuous intragastric administration once a day for 6 weeks. During the animal feeding, the body weight of mice was monitored and recorded weekly; 16 h after the last administration in the 6th week, blood was collected from the orbit of the mice, the liver and spleen of the mice were weighed and photographed, and wet weights of the liver and spleen were recorded. The organ index was calculated (organ index=organ mass/body mass×100%).

**Q.** `COc1cc(C2Oc3cc([C@H]4Oc5cc(O)cc(O)c5C(=O)[C@@H]4O)ccc3OC2CO)ccc1O` (some centres unmarked) [Positive group, silibinin] was tested. Which Liver index (silibinin 100 mg/kg by gavage once a day) did it give?
**A.** The Liver index was 4.42 ± 0.30 %.

**Q.** What about the Spleen index (silibinin 100 mg/kg) of the same molecule?
**A.** Its Spleen index is 0.35 ± 0.02%.

**Q.** And the “liver tissue CAT” value (silibinin 100 mg/kg)?
**A.** The value was 262.23 ± 73.45 U/mg.

**Q.** And the “liver tissue GSH-PX” value (silibinin 100 mg/kg)?
**A.** The value was 7.84 ± 3.75 U/mg.

**Q.** And the “liver tissue MDA” value (silibinin 100 mg/kg)?
**A.** Its value is 1.12 ± 0.28 nmol/mg.

**Q.** And the “liver tissue SOD” value (silibinin 100 mg/kg)?
**A.** The value was 9.33 ± 2.47 U/mg.

**Q.** What about the “serum ALT” value (silibinin 100 mg/kg) of the same molecule?
**A.** Its value is 80.58 ± 18.26 U/L.

**Q.** What about the “serum AST” value (silibinin 100 mg/kg) of the same molecule?
**A.** Its value is 226.58 ± 45.39 U/L.

**Q.** And the “serum IL-1β” value (silibinin 100 mg/kg)?
**A.** The value was 152.13 ± 30.49 pg/mL.

**Q.** What about the “serum IL-6” value (silibinin 100 mg/kg) of the same molecule?
**A.** The value was 81.40 ± 15.12 pg/mL.

**Q.** And the “serum TNF-α” value (silibinin 100 mg/kg)?
**A.** The value was 252.32 ± 34.16 pg/mL.
